# Measured values reported in ChEMBL document CHEMBL1201862, “PubChem BioAssay data set” (2004).
# The source made the active and inactive calls.
# Key:
# [1] = target: CAAX prenyl protease 2 (Saccharomyces cerevisiae S288c, UniProt Q03530); assay type: biochemical
# [2] = target: Cytochrome P450 2C19 (Homo sapiens, UniProt P33261); experiment: Cytochrome panel assay with activity outcomes. Panel member name: p450-cyp2c19 Compounds with AC50 equal or less than 10 uM are considered active; assay type: functional; settings: read-out: AC50
# [3] = target: Cytochrome P450 3A4 (Homo sapiens, UniProt P08684);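 further: CYP3A4 tested as one member of a cytochrome P450 panel screen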
# [4] = target: T1, CAAX prenyl protease 2 (Homo sapiens, UniProt Q9Y256); experiment: inhibition of Ras-converting CAAX protease Rce1 – biochemical, yeast membranes, quenched-peptide fluorescence, cherry-pick, dose response (AID 588849)
# T1 sequence (Q9Y256 whole entry): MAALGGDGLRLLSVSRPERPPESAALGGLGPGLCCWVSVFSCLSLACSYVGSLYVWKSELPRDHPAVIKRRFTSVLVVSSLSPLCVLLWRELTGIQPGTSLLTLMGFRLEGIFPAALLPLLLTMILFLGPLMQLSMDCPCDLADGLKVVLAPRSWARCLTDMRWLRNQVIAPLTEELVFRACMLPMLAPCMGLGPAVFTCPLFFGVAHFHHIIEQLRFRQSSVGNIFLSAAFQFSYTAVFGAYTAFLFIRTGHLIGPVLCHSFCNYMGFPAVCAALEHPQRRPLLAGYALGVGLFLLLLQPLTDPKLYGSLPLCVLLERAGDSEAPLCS
# [5] = target: Cytochrome P450 2C9 (Homo sapiens, UniProt P11712)
# [6] = target: Trypsin (Sus scrofa, UniProt P00761); experiment: trypsin protease activity blockade – biochemical, quenched peptide fluorescence, cherry-pick, selectivity assay for Rce1 protease inhibitor project, dose response (AID 488789)
# [7] = target: T2, DNA dC->dU-editing enzyme APOBEC-3A (Homo sapiens, UniProt P31941); experiment: A3A deaminase inhibition for selectivity – biochemical, dose response (AID 504722); assay type: functional
# [8] = target: T3, DNA dC->dU-editing enzyme APOBEC-3G (Homo sapiens, UniProt Q9HC16); experiment: Dose Response confirmation of small molecule APOBEC3G DNA Deaminase Inhibitors via a fluorescence-based single-stranded DNA deaminase assay. [Related pubchem assays (depositor defined):AID493012, AID493028]; assay type: functional
# [9] = target: T4, Nuclear receptor subfamily 0 group B member 1 (Homo sapiens, UniProt P51843); assay type: functional, cell-based;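 further: HEK293T cells transfected with SF-1 and DAX-1 plus StAR promoter luciferase reporter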
# T4 sequence (P51843 whole entry): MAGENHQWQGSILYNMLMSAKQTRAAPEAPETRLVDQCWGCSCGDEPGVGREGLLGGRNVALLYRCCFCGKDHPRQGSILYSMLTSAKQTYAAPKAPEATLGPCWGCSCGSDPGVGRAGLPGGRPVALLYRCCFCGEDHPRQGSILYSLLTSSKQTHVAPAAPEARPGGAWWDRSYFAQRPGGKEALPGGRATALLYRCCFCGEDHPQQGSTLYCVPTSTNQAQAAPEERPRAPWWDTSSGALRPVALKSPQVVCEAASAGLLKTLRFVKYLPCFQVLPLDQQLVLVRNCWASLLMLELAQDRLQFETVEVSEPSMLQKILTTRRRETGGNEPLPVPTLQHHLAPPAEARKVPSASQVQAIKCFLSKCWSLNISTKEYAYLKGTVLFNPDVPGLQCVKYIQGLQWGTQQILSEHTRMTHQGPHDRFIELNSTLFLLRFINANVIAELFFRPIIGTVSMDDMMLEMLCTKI
# [10] = test system: Streptococcus sp. 'group A'; experiment: Streptococcus pyogenes SK(-)GAS viability under kanamycin – luminescence, BacTiterGlo, confirmation, counter-screen for streptokinase expression inhibitor project, dose response (AID 1900); assay type: functional, organism-based
# [11] = target: T5, Streptokinase A (Streptococcus pyogenes serotype M1, UniProt P10520); experiment: viability-normalized secreted streptokinase activity reduction – plasminogen activation absorbance, OD405, dose response (AID 1914); assay type: functional, Streptococcus pyogenes M1 GAS;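 further: secreted streptokinase activity via plasminogen activation per viability signal from cell pellet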
# T5 sequence (P10520 whole entry): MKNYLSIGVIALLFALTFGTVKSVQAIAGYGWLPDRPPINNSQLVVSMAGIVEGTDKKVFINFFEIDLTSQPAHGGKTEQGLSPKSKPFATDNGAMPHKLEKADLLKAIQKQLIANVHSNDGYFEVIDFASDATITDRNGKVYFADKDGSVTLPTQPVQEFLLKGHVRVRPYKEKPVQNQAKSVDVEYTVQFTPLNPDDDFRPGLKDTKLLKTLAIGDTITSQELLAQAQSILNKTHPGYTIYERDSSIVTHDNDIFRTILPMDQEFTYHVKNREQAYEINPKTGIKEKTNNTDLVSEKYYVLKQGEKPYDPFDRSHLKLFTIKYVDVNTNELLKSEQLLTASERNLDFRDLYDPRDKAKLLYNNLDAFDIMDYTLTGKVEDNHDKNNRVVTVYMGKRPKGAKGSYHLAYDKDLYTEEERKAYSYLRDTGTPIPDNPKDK
# [12] = cells; assay type: functional, cell-based
# [13] = test system: Streptococcus; experiment: GAS UMAA2166 growth inhibition – luminescence, BacTiterGlo, counter-screen for streptokinase expression inhibitor project, dose response (AID 1915); assay type: functional, organism-based;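 further: potency for reduction of bacterial viability or growth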
# [14] = target: T6, G-protein coupled receptor 55 (Homo sapiens, UniProt Q9Y2T6); experiment: inhibition of LPI-stimulated GPR55 beta-arrestin translocation – imaging, U2OS, beta-arrestin-GFP, LPI agonist, primary screen (AID 2013); assay type: functional;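 further: antagonist potency measured as reduced agonist-driven arrestin aggregation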
# [15] = test system: HeLa; experiment: ATP-based viability loss in HeLa cells – cell-based, CellTiter-Glo luminescence, cherry-pick samples, cytotoxicity control for MITF activator project, dose response (AID 540259); assay type: functional; settings: Homo sapiens
# [16] = target: DNA damage-inducible transcript 3 protein (Mus musculus, UniProt P35639); assay type: functional, Cricetulus griseus
# [17] = target: T2, DNA dC->dU-editing enzyme APOBEC-3A; experiment: Dose Response confirmation of small molecule APOBEC3A DNA Deaminase Inhibitors via a fluorescence-based single-stranded DNA deaminase assay. [Related pubchem assays (depositor defined):AID493011, AID493024]; assay type: functional
# [18] = target: T3, DNA dC->dU-editing enzyme APOBEC-3G; assay type: functional
# [19] = target: Bcl-2-like protein 10 (Homo sapiens, UniProt Q9HD36); experiment: Bcl-B/TR3 peptide binding disruption – biochemical, fluorescence polarization, FITC-TR3 peptide, selectivity assay for Bfl-1 inhibitor project, primary screen (AID 748);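 further: fluorescence polarization from a fluorescein-labelled TR3 peptide binding purified Bcl-B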
# [20] = target: T7, Carboxy-terminal domain RNA polymerase II polypeptide A small phosphatase 1 (Homo sapiens, UniProt Q9GZU7); experiment: CTDSP1 inhibitors, concentration-response, biochemical, absorbance readout, ultra-high-throughput screen actives (AID 540297); assay type: functional
# T7 sequence (Q9GZU7 whole entry): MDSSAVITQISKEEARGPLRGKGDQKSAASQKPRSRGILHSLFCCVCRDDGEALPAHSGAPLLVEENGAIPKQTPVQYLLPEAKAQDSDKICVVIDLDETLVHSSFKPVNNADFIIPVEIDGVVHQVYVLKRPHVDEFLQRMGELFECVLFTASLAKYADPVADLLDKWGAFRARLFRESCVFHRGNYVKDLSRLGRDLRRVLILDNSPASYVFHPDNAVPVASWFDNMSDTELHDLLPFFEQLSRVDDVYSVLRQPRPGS
# [21] = target: T8, Phosphoethanolamine/phosphocholine phosphatase (Homo sapiens, UniProt Q8TCT1); experiment: SAR assay for compounds that inhibit PHOSPHO1. [Related pubchem assays (depositor defined):AID1545, AID1565, AID1574]
# T8 sequence (Q8TCT1 whole entry): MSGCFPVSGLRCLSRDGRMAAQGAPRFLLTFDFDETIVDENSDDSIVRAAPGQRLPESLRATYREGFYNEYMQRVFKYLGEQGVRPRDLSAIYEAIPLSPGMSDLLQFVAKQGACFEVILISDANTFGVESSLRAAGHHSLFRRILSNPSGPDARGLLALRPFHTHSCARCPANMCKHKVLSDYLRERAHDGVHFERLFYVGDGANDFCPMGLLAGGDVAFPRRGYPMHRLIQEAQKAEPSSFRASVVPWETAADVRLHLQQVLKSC
# [22] = target: Eukaryotic translation initiation factor 4E (Mus musculus, UniProt P63073); experiment: blockers of eIF4G binding by eIF4E – biochemical, TR-FRET, dose response (AID 855); assay type: functional;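 further: potency for disrupting eIF4E binding to eIF4GI seen as loss of FRET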
# [23] = Counterscreen for IDE inhibitors: Luminescence-based cell-based high throughput dose response assay to identify compounds that are cytotoxic to HEK cells. [Related pubchem assays: 434962 (Primary screen (IDE inhibitors in singlicate)), 449730 (Counterscreen (Cytotoxicity in triplicate)), 435028 (Confirmation (IDE inhibitors in triplicate)) …; assay type: functional; settings: HEK293
# [24] = target: Insulin-degrading enzyme (Homo sapiens, UniProt P14735); experiment: Dose Response: Fluorescence polarization-based cell-based high throughput dose response assay for inhibitors of insulin-degrading enzyme (IDE). [Related pubchem assays: 434962 (Primary screen (IDE inhibitors in singlicate)), 449730 (Counterscreen (Cytotoxicity in triplicate)), 435028 (Confirmation (IDE inhibitors in triplicate)), 434984 (Summary …; assay type: functional
# [25] = target: Large T antigen (Simian virus 40, UniProt P03070); assay type: functional, Betapolyomavirus macacae;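 further: Confirmatory-stage PubChem screen for compounds that inhibit SV40 T antigen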
# [26] = target: T9, Phosphomannomutase 2 (Homo sapiens, UniProt O15305); experiment: Counter screen SAR assay for PMM2 inhibitors via a fluorescence intensity assay. [Related pubchem assays (depositor defined):AID1545, AID1574]
# T9 sequence (O15305 whole entry): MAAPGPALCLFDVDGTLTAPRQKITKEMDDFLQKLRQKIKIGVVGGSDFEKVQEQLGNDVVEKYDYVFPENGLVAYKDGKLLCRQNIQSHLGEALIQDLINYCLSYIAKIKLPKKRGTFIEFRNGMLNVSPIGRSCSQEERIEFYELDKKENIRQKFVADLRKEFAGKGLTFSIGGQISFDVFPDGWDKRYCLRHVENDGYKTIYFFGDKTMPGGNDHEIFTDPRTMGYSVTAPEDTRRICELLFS
# [27] = target: T10, Mannose-6-phosphate isomerase (Homo sapiens, UniProt P34949); experiment: phosphomannose isomerase inhibition – biochemical, fluorescence intensity, confirmation (AID 1535)
# T10 sequence (P34949 whole entry): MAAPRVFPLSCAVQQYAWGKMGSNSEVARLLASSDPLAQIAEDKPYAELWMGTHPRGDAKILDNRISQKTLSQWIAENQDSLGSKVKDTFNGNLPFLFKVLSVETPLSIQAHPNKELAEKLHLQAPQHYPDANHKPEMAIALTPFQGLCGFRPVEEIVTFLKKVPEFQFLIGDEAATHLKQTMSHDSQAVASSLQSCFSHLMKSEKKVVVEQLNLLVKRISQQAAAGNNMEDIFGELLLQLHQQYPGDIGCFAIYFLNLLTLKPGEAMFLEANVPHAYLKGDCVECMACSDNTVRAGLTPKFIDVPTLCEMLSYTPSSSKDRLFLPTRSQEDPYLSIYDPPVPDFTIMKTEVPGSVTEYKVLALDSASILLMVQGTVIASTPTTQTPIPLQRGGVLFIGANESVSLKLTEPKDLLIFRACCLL
# [28] = target: T6, G-protein coupled receptor 55; experiment: SAR Analysis of Selective Antagonists of GPR55 using an Image-Based Assay - Set 3. [Related pubchem assays (depositor defined):AID2058, AID2079]; assay type: functional
# [29] = target: G-protein coupled receptor 35 (Homo sapiens, UniProt Q9HC97); experiment: SAR analysis of Antagonists of the GPR35 Receptor using an Image-Based Assay - Set 5. [Related pubchem assays (depositor defined):AID2058, AID2079]; assay type: functional
# Sequence of G-protein coupled receptor 35 (Q9HC97 whole entry): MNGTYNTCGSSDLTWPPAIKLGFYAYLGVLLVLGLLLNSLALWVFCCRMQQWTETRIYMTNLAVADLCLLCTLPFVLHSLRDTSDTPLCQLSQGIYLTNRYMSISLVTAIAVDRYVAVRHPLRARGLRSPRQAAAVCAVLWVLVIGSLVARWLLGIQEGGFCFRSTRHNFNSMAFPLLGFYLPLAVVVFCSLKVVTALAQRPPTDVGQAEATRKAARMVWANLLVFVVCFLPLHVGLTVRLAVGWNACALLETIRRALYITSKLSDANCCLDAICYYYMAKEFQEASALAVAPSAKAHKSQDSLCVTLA
# T6 sequence (Q9Y2T6 whole entry): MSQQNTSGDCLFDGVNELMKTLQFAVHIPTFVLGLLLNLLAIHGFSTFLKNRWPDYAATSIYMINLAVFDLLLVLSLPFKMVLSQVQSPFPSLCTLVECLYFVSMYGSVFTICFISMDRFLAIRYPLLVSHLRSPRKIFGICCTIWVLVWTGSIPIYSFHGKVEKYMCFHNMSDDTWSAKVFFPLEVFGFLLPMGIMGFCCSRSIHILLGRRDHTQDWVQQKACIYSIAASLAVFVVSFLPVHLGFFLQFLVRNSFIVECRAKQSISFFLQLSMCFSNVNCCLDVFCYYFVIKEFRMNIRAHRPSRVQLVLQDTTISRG
# T3 sequence (Q9HC16 whole entry): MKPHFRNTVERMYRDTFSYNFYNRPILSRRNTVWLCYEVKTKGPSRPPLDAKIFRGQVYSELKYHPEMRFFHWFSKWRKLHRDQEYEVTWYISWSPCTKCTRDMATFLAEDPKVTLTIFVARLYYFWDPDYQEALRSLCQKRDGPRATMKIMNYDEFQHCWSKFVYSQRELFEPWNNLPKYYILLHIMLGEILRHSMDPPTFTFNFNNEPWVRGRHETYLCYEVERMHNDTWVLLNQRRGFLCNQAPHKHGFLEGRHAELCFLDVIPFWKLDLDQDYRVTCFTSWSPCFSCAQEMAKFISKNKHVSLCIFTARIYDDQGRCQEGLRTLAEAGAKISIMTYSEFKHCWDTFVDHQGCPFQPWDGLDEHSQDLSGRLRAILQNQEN
# T2 sequence (P31941 whole entry): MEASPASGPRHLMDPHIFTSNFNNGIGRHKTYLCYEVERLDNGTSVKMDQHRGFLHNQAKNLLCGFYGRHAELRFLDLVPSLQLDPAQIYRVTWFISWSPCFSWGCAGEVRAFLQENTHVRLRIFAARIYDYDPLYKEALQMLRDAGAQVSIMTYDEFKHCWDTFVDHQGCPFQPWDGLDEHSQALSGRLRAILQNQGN
# Sequence of CAAX prenyl protease 2 (Saccharomyces cerevisiae S288c, UniProt Q03530) (Q03530 whole entry): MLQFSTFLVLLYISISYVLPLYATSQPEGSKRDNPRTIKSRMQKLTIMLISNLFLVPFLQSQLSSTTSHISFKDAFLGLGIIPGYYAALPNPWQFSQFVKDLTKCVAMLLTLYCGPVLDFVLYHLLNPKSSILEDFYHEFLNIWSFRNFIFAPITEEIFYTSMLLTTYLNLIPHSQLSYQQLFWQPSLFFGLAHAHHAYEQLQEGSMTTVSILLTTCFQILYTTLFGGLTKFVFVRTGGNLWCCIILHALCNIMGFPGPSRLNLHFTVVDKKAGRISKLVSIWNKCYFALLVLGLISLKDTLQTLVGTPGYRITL
# Sequence of Bcl-2-like protein 10 (Q9HD36 whole entry, the tested form may be a part): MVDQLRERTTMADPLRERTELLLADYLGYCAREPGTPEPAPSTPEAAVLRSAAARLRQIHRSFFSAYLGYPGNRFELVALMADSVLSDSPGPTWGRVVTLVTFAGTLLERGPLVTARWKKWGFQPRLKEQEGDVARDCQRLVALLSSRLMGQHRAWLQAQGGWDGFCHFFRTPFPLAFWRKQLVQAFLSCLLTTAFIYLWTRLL
# Sequence of Cytochrome P450 3A4 (P08684 whole entry): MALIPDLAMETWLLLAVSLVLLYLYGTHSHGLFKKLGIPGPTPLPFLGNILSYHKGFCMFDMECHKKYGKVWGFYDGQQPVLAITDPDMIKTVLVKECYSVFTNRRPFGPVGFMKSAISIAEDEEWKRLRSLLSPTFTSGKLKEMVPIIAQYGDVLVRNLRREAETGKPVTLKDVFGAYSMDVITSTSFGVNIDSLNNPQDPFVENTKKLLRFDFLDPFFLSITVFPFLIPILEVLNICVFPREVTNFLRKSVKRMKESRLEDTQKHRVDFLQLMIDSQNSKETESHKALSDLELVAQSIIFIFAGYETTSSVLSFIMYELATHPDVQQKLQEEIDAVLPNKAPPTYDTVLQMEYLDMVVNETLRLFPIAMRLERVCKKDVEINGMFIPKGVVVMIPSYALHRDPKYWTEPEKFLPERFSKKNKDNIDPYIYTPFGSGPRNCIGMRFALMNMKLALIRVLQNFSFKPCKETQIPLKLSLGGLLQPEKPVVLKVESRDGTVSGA
# Sequence of Cytochrome P450 2C19 (P33261 whole entry): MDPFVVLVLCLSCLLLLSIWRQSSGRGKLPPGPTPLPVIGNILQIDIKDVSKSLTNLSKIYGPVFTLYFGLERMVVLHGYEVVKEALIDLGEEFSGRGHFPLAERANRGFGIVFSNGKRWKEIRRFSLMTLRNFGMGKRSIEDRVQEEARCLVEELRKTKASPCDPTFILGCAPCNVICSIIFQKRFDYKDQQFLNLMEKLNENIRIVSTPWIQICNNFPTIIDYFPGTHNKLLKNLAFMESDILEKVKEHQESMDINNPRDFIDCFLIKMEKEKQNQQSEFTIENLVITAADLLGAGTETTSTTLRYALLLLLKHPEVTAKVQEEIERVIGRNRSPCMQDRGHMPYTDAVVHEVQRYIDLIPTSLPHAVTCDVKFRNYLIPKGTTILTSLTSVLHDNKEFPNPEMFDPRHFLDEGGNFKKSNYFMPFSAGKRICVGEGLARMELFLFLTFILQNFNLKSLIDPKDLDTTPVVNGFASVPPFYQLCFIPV
# Sequence of Eukaryotic translation initiation factor 4E (P63073 whole entry): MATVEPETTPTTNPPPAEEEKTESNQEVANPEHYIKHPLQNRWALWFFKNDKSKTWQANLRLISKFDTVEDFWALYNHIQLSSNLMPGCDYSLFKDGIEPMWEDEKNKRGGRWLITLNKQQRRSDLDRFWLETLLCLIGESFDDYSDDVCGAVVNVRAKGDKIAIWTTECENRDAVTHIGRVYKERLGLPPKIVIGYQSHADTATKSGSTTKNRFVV
# Sequence of Insulin-degrading enzyme (P14735 whole entry): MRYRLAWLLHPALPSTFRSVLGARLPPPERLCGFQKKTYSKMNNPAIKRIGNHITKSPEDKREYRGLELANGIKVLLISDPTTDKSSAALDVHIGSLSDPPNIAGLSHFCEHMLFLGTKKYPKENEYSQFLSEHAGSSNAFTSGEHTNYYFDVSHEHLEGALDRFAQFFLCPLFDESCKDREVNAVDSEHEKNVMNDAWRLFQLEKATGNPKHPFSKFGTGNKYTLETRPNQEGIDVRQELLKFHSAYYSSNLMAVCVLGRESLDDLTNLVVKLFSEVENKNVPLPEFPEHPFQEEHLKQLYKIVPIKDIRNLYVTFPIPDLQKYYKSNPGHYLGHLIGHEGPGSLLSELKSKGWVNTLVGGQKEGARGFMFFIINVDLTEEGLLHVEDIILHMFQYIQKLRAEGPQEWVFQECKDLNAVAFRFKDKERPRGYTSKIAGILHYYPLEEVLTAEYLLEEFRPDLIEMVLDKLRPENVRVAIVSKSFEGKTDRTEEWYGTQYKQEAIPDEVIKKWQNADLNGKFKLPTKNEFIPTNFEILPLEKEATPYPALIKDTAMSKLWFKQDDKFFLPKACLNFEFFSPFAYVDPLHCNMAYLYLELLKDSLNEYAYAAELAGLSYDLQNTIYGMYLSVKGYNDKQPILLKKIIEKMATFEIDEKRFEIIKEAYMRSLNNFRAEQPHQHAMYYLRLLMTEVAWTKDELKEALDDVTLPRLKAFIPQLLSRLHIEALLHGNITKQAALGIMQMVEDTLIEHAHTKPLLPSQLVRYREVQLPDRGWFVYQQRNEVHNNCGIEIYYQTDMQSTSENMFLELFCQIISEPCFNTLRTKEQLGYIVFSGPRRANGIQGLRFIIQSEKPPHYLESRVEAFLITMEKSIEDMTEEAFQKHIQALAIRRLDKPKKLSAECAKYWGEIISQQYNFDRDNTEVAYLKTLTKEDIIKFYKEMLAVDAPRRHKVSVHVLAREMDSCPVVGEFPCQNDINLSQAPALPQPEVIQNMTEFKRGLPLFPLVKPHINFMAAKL
# Sequence of Cytochrome P450 2C9 (P11712 whole entry): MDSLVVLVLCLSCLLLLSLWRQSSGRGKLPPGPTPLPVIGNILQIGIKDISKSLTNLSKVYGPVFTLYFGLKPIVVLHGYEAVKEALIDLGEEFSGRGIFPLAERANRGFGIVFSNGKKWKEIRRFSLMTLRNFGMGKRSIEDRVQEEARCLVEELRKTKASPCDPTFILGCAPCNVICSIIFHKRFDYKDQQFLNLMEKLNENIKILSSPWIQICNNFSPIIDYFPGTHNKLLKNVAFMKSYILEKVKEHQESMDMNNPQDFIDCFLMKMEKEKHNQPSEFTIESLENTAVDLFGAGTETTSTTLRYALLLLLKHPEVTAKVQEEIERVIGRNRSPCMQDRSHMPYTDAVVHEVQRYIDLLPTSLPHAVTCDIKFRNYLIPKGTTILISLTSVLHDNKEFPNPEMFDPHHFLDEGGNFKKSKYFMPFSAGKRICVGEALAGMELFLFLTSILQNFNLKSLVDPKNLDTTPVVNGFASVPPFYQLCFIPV
# Sequence of Trypsin (P00761 whole entry): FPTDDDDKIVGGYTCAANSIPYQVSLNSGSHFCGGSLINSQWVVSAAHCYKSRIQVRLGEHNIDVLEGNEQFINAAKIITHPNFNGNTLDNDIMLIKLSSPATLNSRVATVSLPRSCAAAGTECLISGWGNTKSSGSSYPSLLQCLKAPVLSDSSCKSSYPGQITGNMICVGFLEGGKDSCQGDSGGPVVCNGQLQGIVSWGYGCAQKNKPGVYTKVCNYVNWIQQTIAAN
# Sequence of DNA damage-inducible transcript 3 protein (P35639 whole entry): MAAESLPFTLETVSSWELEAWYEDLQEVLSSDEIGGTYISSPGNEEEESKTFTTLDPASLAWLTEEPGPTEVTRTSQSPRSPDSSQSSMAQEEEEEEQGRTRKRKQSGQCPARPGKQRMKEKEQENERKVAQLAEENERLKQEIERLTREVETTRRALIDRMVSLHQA
structure (smiles),measurement,setting,value
Cc1cccc(Nc2ccccc2C(=O)OCC(=O)N(C)C2CCS(=O)(=O)C2)c1C (stereo not drawn),AC50,[1],3.45 µM (active)
same,AC50,[2],28.2 µM (inconclusive)
same,AC50,[3],28.2 µM (inconclusive)
same,AC50,[4],0.914 µM (active)
same,AC50,[5],39.8 µM (inconclusive)
same,AC50,[6],15.5 µM (active)
COc1cccc(/C=N/n2c(S)nnc2-c2cc(C)[nH]n2)c1,IC50,[7],> 100 µM (inactive)
same,IC50,[8],5.19 µM (active)
c1ccc(-c2nc(-c3nccc4ccccc34)oc2-c2ccccc2)cc1,IC50,[9],> 67.5 µM (inactive)
same,EC50,[10],> 150 µM (not active)
same,EC50,[11],5.23 µM (active)
same,IC50,[12],> 67.5 µM (inactive)
same,EC50,[13],> 150 µM (not active)
same,IC50,[14],3.48 µM (active)
same,AC50,[15],132 µM (active)
NC(=O)CC(NC(=O)Cc1cccc2ccccc12)c1ccc(NCc2cc(F)ccc2F)c([N+](=O)[O-])c1 (stereo not drawn),Absolute IC50 (CHOP),[16],10 µM
COc1ccc(NS(=O)(=O)c2ccc3oc(=O)c4[nH]c(=O)c(=O)n(C)c4c3c2)cc1,AC50,[1],22.7 µM (active)
COc1ccc(C(=O)NC(C)c2nnc(SCc3ccc(Cl)c(Cl)c3)n2C)cc1 (stereo not drawn),IC50,[17],3.87 µM (active)
same,IC50,[18],5.45 µM (active)
COc1ccc(N(CC(=O)Nc2nc3ccc(C)cc3s2)S(=O)(=O)c2c(C)nn(C)c2C)cc1,IC50,[14],2.04 µM (active)
O=C(COC(=O)C1CCN(S(=O)(=O)c2cc([N+](=O)[O-])ccc2Cl)CC1)Nc1ncc(Cl)cc1Cl,IC50,[17],17.9 µM (active)
same,IC50,[18],36.3 µM (active)
same,IC50,[19],3.81 µM (active)
same,IC50,[20],4.29 µM (active)
O=c1c2ccccc2sn1-c1cc(S(=O)(=O)N2CCOCC2)ccc1N1CCOCC1,IC50,[21],1.27 µM (inactive)
same,EC50,[10],10.2 µM (active)
same,IC50,[22],5.36 µM (active)
same,EC50,[11],> 150 µM (not active)
same,IC50,[23],11 µM (not active)
same,IC50,[7],> 100 µM (inactive)
same,EC50,[13],> 150 µM (not active)
same,IC50,[8],14 µM (active)
same,IC50,[24],1.44 µM (active)
same,IC50,[25],13.2 µM (active)
same,IC50,[26],9.87 µM (active)
same,IC50,[27],2.6 µM (active)
NC(=S)N/N=C/c1c[nH]nc1-c1ccccc1,IC50,[28],> 32 µM (inactive)
same,IC50,[29],> 32 µM (inactive)
